Results: patent US11286258B2, “Nature-inspired anticancer and antibacterial motifs and pharmaceutical composition thereof” (University of Sharjah, priority 2020, dated 2022)
Values after ≈ are worked out from the molar mass of the structure shown.

How the values were obtained:
[1] = system: MRSA-2 (clinical isolate); experiment: MIC broth microdilution, MRSA-2; type: cell-based, Staphylococcus aureus; settings: Staphylococcus aureus, MRSA; overnight incubation, Mueller-Hinton broth; read-out: MIC MRSA-2 (clinical isolate)
Method: Antibacterial activity: The compounds were tested for the minimum inhibitory concentrations (MIC), which is the lowest concentration of a chemical required to inhibit visible microbial growth following overnight incubation. MIC values were determined using broth microdilution method according to the Clinical and Laboratory Standards Institute guidelines (CLSI, 2015, M07-A10). Mueller-Hinton broth was used as a culture medium in all the experiments. Exponentially growing bacterial cells were prepared in Mueller-Hinton broth at a concentration of approximately 5×10^5 CFU/mL. Two-fold serial dilutions of the test compound (8 concentrations ranged between 100-0.78 μg/mL) were tested. […] In each experiment, solvent (DMSO) was used as a negative control, un-treated control (composing of bacteria in Mueller-Hinton broth) was used as a growth control, blank (culture media alone) was used as sterility control. The 96-well microplate with the test compounds was incubated overnight at 37° C. Turbidity in wells indicated bacterial growth.
The compounds were tested on six MDR Gram-positive bacteria including three clinical isolates of methicillin-resistant Staphylococcus aureus (MRSA-1, MRSA-2 and MRSA-3) and three reference MRSA strains (ATCC33591, ATCC33592 and ATCC700699). They were also tested on three MDR Gram-negative bacteria including New Delhi metallo-beta-lactamase (NDM-1) positive, carbapenem-resistant E. coli (ATCC BAA2469), extended-spectrum beta-lactamase (ESBL) producing, colistin-resistant E. coli (CDC-AR-0346) and carbapenem-resistant Acinetobacter baumannii (ATCC BAA1605), in addition to two non-MDR bacteria from the same species, namely E. coli (ATCC 25922) Acinetobacter baumannii (ATCC 19606).

HCT-116 cells = experiment: Western blot, apoptotic biomarkers, tumor suppressor genes and oncogenes, HCT-116; type: cell-based, human; settings: for PARP cleavage / Cleavage of caspase7 and caspase-3 / Levels of p53 proteins / c-Myc oncogene level: HCT-116; for PARP cleavage / Cleavage of caspase7 and caspase-3: 1 to 4 μM, 48 h; for Cleavage of caspase7 and caspase-3: clear at 4 μM; for Levels of p53 proteins: at higher concentrations; for c-Myc oncogene level: dose-dependent manner; for Levels of BAX: treated cells, parallel to decreased p53
Method: (§1) Western blotting (apoptotic biomarkers, tumor suppressor genes and oncogenes): Hep3B and HCT-116 cells were treated with 1f and 1h compounds with increasing concentrations from 1 to 4 μM for 48 h. After reaching the time point, proteins were extracted from the collected cells after their lyses, and protein quantification was performed using a Detergent compatible (DC) protein assay kit (Bio-Rad) following the manufacturer's instructions. 12% SDS-polyacrylamide gels were used to separate the proteins, following the proteins were transferred onto nitrocellulose membrane using a semi-dry transfer cell. After transfer, membranes were incubated with primary antibodies and the incubation was left overnight at 4° c. The following antibodies were implicated: anti-β actin (Cell Signalling #4970), anti-caspase3 (Cell Signalling #14220), anti-caspase-7 (Cell Signalling33 #9492), anti-PARP (Cell Signalling #9532), anti-P53 (Cell Signalling #2527), anti-C-myc (Cell Signalling #18583), and anti-BAX (#5023). Finally, membranes were incubated with secondary conjugated with horseradish peroxidase. The indicated proteins were detected by chemiluminescence.

Hep3B cells = experiment: Western blot, apoptotic biomarkers, tumor suppressor genes and oncogenes, Hep3B; type: cell-based, human; settings: for PARP cleavage / Cleavage of caspase7 and caspase-3: 1 to 4 μM, 48 h; for Cleavage of caspase7 and caspase-3: clear at 4 μM; for c-Myc oncogene level: dose-dependent manner
Method: as §1

SKOV3 = experiment: MTT cell viability, SKOV3; type: cell-based; settings: Homo sapiens, SK-OV-3; 48 h of drug treatment; average of three experiments
Method: (§2) Cell viability studies: Cell viability was assessed using the MTT assay as described before. In brief, all cancer cell lines were seeded at a density of 4×10^4/well in 96 well flat-bottom plates. After 24 h from seeding, cells were treated with the synthesized compounds and left for an incubation period of 48 h. Upon reaching the indicated time point, the media was removed and replaced with 200 μL fresh media containing 0.5 mg/mL of MTT tetrazolium dye (Sigma-Aldrich). Cells were then incubated with MTT solution for 2 h at 37° C. The resultant formazan crystals were dissolved in 200 μl/well of DMSO and absorbance was measured at 570 nm using a microplate reader (Thermo Scientific).

JIMT1 = experiment: MTT cell viability, JIMT1; type: cell-based; settings: Homo sapiens, JIMT-1; breast cancer; 48 h of drug treatment; average of three experiments
Method: as §2

MDA-MB-468 = experiment: MTT cell viability, MDA-MB-468; type: cell-based; settings: Homo sapiens, breast cancer, 48 h of drug treatment, average of three experiments
Method: as §2

SKBR3 = experiment: MTT cell viability, SKBR3; type: cell-based; settings: Homo sapiens, SK-BR-3; breast cancer; 48 h of drug treatment; average of three experiments
Method: as §2

AGS = experiment: MTT cell viability, AGS; type: cell-based; settings: Homo sapiens, stomach cancer, 48 h of drug treatment, average of three experiments
Method: as §2

Hela cells = experiment: Western blot, autophagy- and iron metabolism-related proteins, Hela; type: cell-based, human
Method: (§3) Western Blotting (autophagy- and iron metabolism-related proteins): Cells were grown in DMEM supplemented with 10% FBS and 1×PEST (Penicillin and streptomycin antibiotics) at 37° C. in incubator having humidified atmosphere with 5% CO2. The media were removed and cells were washed twice with 1× cold PBS. Cells lysis was performed with RIPA lysis buffer containing (150 mM sodium chloride, 1.0% NP-40, 0.1% SDS, 50 mM Tris pH 8.0, 0.5% sodium deoxycholate supplemented with protease inhibitors cocktail). Cells were kept on icebox during the lysis process. Cold lysis buffer was added to each well directly and then cells were scraped and collected in 1.5 ml Eppendorf tube. Cell lysis was kept on icebox for 20 minutes and then centrifuged at 4° C. for 10 minutes. The supernatant was collected and the pellet was discarded. After, protein quantification, samples were boiled in 5× loading buffer at 95° C. for 5 minutes. After completion of the gel running and transfer process, the membrane was stained with ponceau solution. After that, the membrane was washed with 1×TBST and then blocked in 5% non-fat dry milk for 1 hr at room temperature. The membrane was washed 3 times with 1×TBST and then incubated with indicated primary antibodies at 4° C. overnight. Primary antibodies were removed; the membrane was washed 3 times with 1×TBST and then incubated with secondary antibodies for 2 h at room temperature. Secondary antibodies were diluted in 5% non-fat dry milk in 1× TB ST. After removal of the secondary antibody, the membrane was washed 3 times with 1×TBST. The membrane was incubated in ECL solution and the signal was developed using Gel Doc system from Biorad.

MDA-MB-231 = experiment: MTT cell viability, MDA-MB-231; type: cell-based; settings: Homo sapiens, breast cancer, 48 h of drug treatment, average of three experiments
Method: as §2

SKBR3 cells = experiment: Western blot, autophagy- and iron metabolism-related proteins, SKBR3; type: cell-based, human
Method: as §3

Row | Compound | MIC [1] [µg/mL] | PARP cleavage (HCT-116 cells) | Cleavage of caspase7 and caspase-3 (HCT-116 cells) | Levels of p53 proteins (HCT-116 cells) | c-Myc oncogene level (HCT-116 cells) | Levels of BAX (HCT-116 cells) | PARP cleavage (Hep3B cells) | Cleavage of caspase7 and caspase-3 (Hep3B cells) | c-Myc oncogene level (Hep3B cells) | IC50 (SKOV3) [µM] | IC50 (JIMT1) [µM] | IC50 (MDA-MB-468) [nM] | IC50 (SKBR3) [µM] | IC50 (AGS) [µM] | Expression and metabolism of autophagy marker LC3B1/II (Hela cells) | IC50 (MDA-MB-231) [µM] | other results
1 | Cc1ccc2c(c1)c1c3n2[C@@]2(C=C/C(=N\Nc4ccc(C(F)(F)F)cc4)CC2)CC[C@@H]3NCC1 [Compound 1h] | 1.56 (≈ 3.36 µM) | PARP cleavage | cleavage | decreased | downregulate | decreased levels | PARP cleavage | cleavage | downregulate | – | – | – | – | – | – | – | –
2 | COc1ccc2c(c1)c1c3n2[C@@]2(C=C/C(=N\Nc4ccc(C(F)(F)F)cc4)CC2)CC[C@@H]3NCC1 [Compound 1k] | 1.56 (≈ 3.25 µM) | – | – | – | – | – | – | – | – | 4.68 ± 0.22 | 3.49 ± 0.06 | 2490 ± 160 | 4.1 ± 0.21 | 4.66 ± 0.15 | upregulate | 4.03 ± 0.16 | Expression of DNA damage marker pH2AX (Hela cells): induce
3 | FC(F)(F)Oc1ccc(N/N=C2\C=C[C@@]3(CC2)CC[C@@H]2NCCc4c2n3c2ccccc42)cc1 [Compound 1f] | 6.25 (≈ 13.4 µM) | PARP cleavage | cleavage | decreased | downregulate | decreased levels | PARP cleavage | cleavage | downregulate | – | – | – | – | – | – | – | –
4 | FC(F)(F)c1ccc(N/N=C2\C=C[C@@]3(CC2)CC[C@@H]2NCCc4c2n3c2ccccc42)cc1 (racemic) [Compound 1e] | 1.56 (≈ 3.46 µM) | – | – | – | – | – | – | – | – | 3.84 ± 0.21 | 3.08 ± 0.14 | 2500 ± 130 | 1.96 ± 0.08 | 3.31 ± 0.12 | upregulate | 3.63 ± 0.06 | Expression of BECLIN-1 (SKBR3 cells): induced; Expression of Ferritin (FTH1) (SKBR3 cells): induced; Expression of LC3B1/II (SKBR3 cells): induced; Expression of pH2AX (SKBR3 cells): induced; Expression of Ferritin heavy chain (FTH1) (Hela cells): inhibits; Expression of cell cycle marker CDK6 (Hela cells): inhibits; Expression of cellular iron exporter protein Ferroportin (FPN) (Hela cells): inhibits
